Measurements reported in patent US10308617B2, “Triazole benzamide derivatives and the compositions and methods of treatment regarding the same” (An2H Discovery Limited, priority 2016, dated 2019).

Target: T1, Parkin ligase (Homo sapiens, UniProt O60260)
T1 sequence (O60260 1-465): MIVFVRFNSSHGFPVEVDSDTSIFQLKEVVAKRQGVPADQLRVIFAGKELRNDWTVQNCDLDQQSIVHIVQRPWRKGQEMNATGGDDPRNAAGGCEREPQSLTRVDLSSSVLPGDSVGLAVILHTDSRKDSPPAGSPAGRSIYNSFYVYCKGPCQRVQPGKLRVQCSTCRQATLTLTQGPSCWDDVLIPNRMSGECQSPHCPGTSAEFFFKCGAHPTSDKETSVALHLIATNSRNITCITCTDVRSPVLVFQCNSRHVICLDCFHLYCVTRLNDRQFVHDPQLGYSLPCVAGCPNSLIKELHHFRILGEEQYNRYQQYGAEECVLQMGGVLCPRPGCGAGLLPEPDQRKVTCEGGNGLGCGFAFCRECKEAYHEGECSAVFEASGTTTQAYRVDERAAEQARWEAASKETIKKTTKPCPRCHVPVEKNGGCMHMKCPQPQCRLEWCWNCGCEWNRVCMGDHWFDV
Assay: Activity-Based Probe Assay using an Ubiquitin vinyl sulfone probe (TR-FRET)
Type: biochemical
Details: Parkin activation, HA-Ub-VS probe, heat activated Parkin; read-out: Probe Assay EC50 (μM) [Example 2]
Protocol: An Ubiquitin vinyl sulfone probe can be used that irreversibly binds to the active site cysteine of Parkin ligase. Covalent attachment of the probe to the Parkin can be monitored by TR-FRET. Candidate activator compounds can be identified by increasing the activity of Parkin ligase due to an increase in TR-FRET signal. Screening for activating compounds can be distinguished from the controls as follows: • 100% activation signal=Heat activated Parkin+100 nM control activator in DMSO. • 0% activation signal=Heat activated Parkin+DMSO only. • Parkin activators can be identified by an increase of the 0% activation signal TR-FRET signal.
• Assay Plate: White 384 well plate (Corning 3572) • Enzyme: Parkin-His tagged 203 μM (10.5 mg/ml) • Probe: Ubiquitin vinyl-sulfone (HA-Ub-VS Boston Biochem U-212) • DMSO: DMSO (Sigma cat # D4540-100ML) • Reaction Buffer: 50 mM HEPES (pH 8.5), 150 mM NaCl, 0.01% Tween 20, 0.1% BSA • Detection Buffer: 50 mM HEPES (pH 8.5), 150 mM NaCl, 0.01% Tween 20, 0.1% BSA, 800 mM KF • Detection Reagent A: 2.6 nM Anti-6HIS-Eu cryptate and 40 nM Anti-HA-XL665 in detection buffer • Eu cryptate: Anti-6HIS-Eu cryptate (CisBio 61HISKLA) • XL665: Anti-HA-XL665 (CisBio 610HAXLA) Enzyme Reaction (15 min pre incubation Parkin with activator only) • Parkin: 40 nM • HA-Ub-VS Probe: 70 nM • Activator/DMSO: 2× Activator/2% DMSO • Reaction time: 60 minutes • Temperature: 22° C. • Total volume: 10 μl reaction Detection Reaction • Take 10 μl of Enzyme Reaction above and add 10 μl detection Reagent A under the following conditions: • Reaction time: 60 minutes • Temperature: 22° C. • Total volume: 20 μl
Assay procedure (Using HP D-300 compound dispenser and Bravo for the operation): • 1) Heat activate Parkin in reaction buffer (500 μl/1.5 ml tube: Eppendorf Thermomixer 5 minutes, 400 rpm at 58° C. and put on ice until needed). • 2) Load assay plate wells with 4.8 μl 84.5 nM Parkin in reaction buffer by use of Bravo. • 3) Deliver 0.2 μl 200× activator candidates in DMSO by use of HP D-300 compound dispenser. Highest 200× concentration=[…] and then twofold dilutions. • 4) Spin 1000 rpm, 2 minutes, at room temp. • 5) Incubate plate for 15 minutes at room temp. • 6) Add 5 μl 140 nM HA-Ub-VS Probe in reaction buffer by use of Bravo. • 7) Spin 1000 rpm, 2 minutes, at room temp. • 8) Incubate plate for 60 minutes at room temp. • 9) Add 10 μl 2.6 nM Anti-6HIS-Eu cryptate and 40 nM Anti-HA-XL665 in detection buffer. • 10) Spin 1000 rpm, 2 minutes, at room temp. • 11) Incubate plate for 60 minutes at room temp. • 12) Read plates on Perkin Elmer Envision instrument with the following parameters: • LANCE dual laser protocol loaded into the Envision® software • Top Mirror: LANCE/DELFIA Duel/Bias (Bar code 446) • Emission Filter: APC 665 EM (Bar code 205) • 2nd Emission Filter: Europium 615 EM (Bar code 203) • Read 655 nm (channel 1) and 615 nm (channel 2) wavelengths on Envision®
Data Analysis: The Data can be read in CSV files. There are two tables in those CSV files, which are the values of 655 nm (channel 1) and 615 nm (channel 2) wavelengths respectively. The data is converted to an HTRF Ratio=(Channel 1/Channel 2)*10,000
The average of all the 0 uM controls (DMSO only)=BKGD (Background—0% activation). Subtract BKGD from each HTRF Ratio value=HTRF-BKGD. The average of all the […] 100 nM control activator in DMSO controls=Max (100% activation). The following equation is then used to calculate % Activation for each well/candidate as follows: % Activation=(HTRF-BKGD/Max)*100.
Graphpad Prisim was used with Transform X values: X=Log(X) and nonlinear regression (dose-response-stimulation): Log(agonist) vs Response—variable slope (four parameters) with constrains set to Bottom=0 and Top=100.
The Activity-Based Probe Assay was performed with various compounds in Tables 1-3.

Going from `c1ccc(-n2nc(-c3ccccn3)nc2Nc2ncnc3ccccc23)cc1` [Compound U2] to `O=C(Nc1nc(Nc2ncnc3ccccc23)nn1-c1ccccc1)c1ccccc1` [I], the EC50 rises from 22 µM to greater than 100 µM. The first is the more potent here.

Going from `O=C(Nc1nc(NC(=O)c2cccc([N+](=O)[O-])c2)n(-c2ccccc2)n1)c1ccccc1` [Compound V1] to `O=C(Nc1nc(NC(=O)c2ccco2)n(-c2ccccc2)n1)c1ccccc1` [Compound W1], the EC50 falls from greater than 100 µM to 10.4 µM.

Compared with `Cc1ccccc1C(=O)Nc1nc(C2CCOCC2)nn1-c1ccccc1` [Compound V2], `O=C(Nc1nc(-c2ccccn2)nn1-c1ccccc1)c1ccccc1` [Compound Y1, N-(1-phenyl-3-(pyridin-2-yl)-1H-1,2,4-triazol-5-yl)benzamide] is lower in EC50: greater than 100 µM for the first, 2 µM for the second.

`Cc1ccccc1C(=O)Nc1nc(NC(=O)c2ccccc2C)n(C(C)C)n1` [Compound W2] and `Cc1ccccc1C(=O)Nc1nc(NC(=O)c2ccccc2C)n(-c2ccccn2)n1` [Compound X2] cannot be ordered by EC50: greater than 100 µM for the first, greater than 100 µM for the second.

First: O=C(Nc1nc(NC(=O)c2ccccc2)n(-c2ccc(-c3ccccc3)cc2)n1)c1ccccc1 [Compound X1]
Second: Cc1ccccc1-n1nc(NC(=O)c2ccccc2)nc1NC(=O)c1ccccc1 [M]
The EC50 of the first is lower: 62 µM for the first, greater than 100 µM for the second.

First: O=C(Nc1nc(NC(=O)c2ccccc2)n(-c2ccc(OC(F)(F)F)cc2)n1)c1ccccc1 [Compound Z1]
Second: O=C(Nc1nc(NC(=O)c2ccc(I)cc2)n(-c2ccccc2)n1)c1ccc(I)cc1 [D]
The EC50 of the first is lower: 1 µM for the first, greater than 100 µM for the second. The first is the more potent here.

`CN(C(=O)c1ccccc1)c1nc(NC(=O)c2ccccc2)n(-c2ccccc2)n1` [G] and `CN(C(=O)c1ccccc1)c1nc(NC(=O)c2ccccc2)nn1-c1ccccc1` [V] cannot be ordered by EC50: greater than 100 µM for the first, greater than 100 µM for the second.

`CN(C(=O)c1ccccc1)c1nc(N(C)C(=O)c2ccccc2)n(-c2ccccc2)n1` [J] and `O=C(Nc1nc(-c2ccccn2)nn1-c1ccccc1)c1ccccc1` [T] cannot be ordered by EC50: greater than 100 µM for the first, greater than 100 µM for the second.

`O=C(Nc1nc(Nc2nccc3ccccc23)n(-c2ccccc2)n1)c1ccccc1` [U] and `CCN(CC)c1nc(Nc2nc(NC(=O)c3ccccc3)nn2-c2ccccc2)c2ccccc2n1` [W] cannot be ordered by EC50: greater than 100 µM for the first, greater than 100 µM for the second.

First: CCN(CC)c1nc(Nc2nc(NC(=O)c3ccccc3)nn2-c2ccccc2)nc2ccccc12 [X]
Second: O=C(Nc1nc(Nc2ncnc3ccccc23)n(-c2ccccc2)n1)c1ccco1 [Z]
The EC50 of the first is higher: greater than 100 µM for the first, 9.1 µM for the second.
